According to patent US20230357179A1, “RAF KINASE INHIBITORS AND METHODS OF USE THEREOF” (Deciphera Pharmaceuticals, LLC, priority 2021, published 2023):
pIC50: −log10 of the molar value.

How the values were obtained:
Format in all cases: cell-based
WM3629 cells = test: WM3629 cell proliferation assay (1), resazurin, 96-well; settings: inhibition of cell proliferation
Description: WM3629 Cell Proliferation Assay (1)
WM3629 cells (#WM3629-01-0001) are obtained from Rockland Immunochemicals Inc (Gilbertsville, PA). Briefly, cells were grown in MCDB 153 medium (Sigma, #M7403, St. Louis, MO) supplemented with 20% Leibovitz's L-15 (ThermoFisher #11415-064, Waltham, MA), 2% heat inactivated fetal bovine serum (ThermoFisher, #A3840001, Waltham, MA), 5 μg/mL Insulin (Bovine Pancreas) (Sigma, #I0516, St. Louis, MO), 1.68 mM Calcium Chloride (Sigma, #C-34006, St. Louis, MO) and 1% Penicillin/Streptomycin/L-Glutamine (ThermoFisher #10378016, Waltham, MA) at 37° C., 5% CO2, and 95% humidity. Cells are expanded until reaching 70-95% confluency at which point they are subcultured or harvested for assay use. A serial dilution of test compound is dispensed into a 96-well black clear bottom plate in triplicate. Four thousand five hundred cells are added per well in 200 μL complete growth medium in the 96-well plate. Plates are incubated for 67-72 hours at 37° C., 5% CO2, and 95% humidity. At the end of the incubation, 40 μL of a 440 μM solution of resazurin (Sigma, #199303, St. Louis, MO) in PBS is added to each well of the plate and plates are incubated for an additional 6-7 hours at 37° C., 5% CO2, and 95% humidity. Plates are read on a Synergy2 or equivalent reader (Biotek, Winooski VT) using an excitation of 540 nm and an emission of 600 nm. Data is analyzed using Prism software (GraphPad, San Diego, CA) to calculate IC50 values.

Miapaca-2 cells = test: MiaPaca-2 combination cell proliferation assay (1) with cobimetinib, 96-well; settings: inhibition of cell proliferation, read-out: MiaPaca-2 Combo (1) IC50
Description: MiaPaca-2 Combination Cell proliferation Assay (1)
Miapaca-2 cells (catalog #CRL-1420) are obtained from the American Type Culture Collect (ATCC, Manassas, VA). Briefly, cells were grown in DMEM supplemented with 10% characterized fetal bovine serum (Invitrogen, Carlsbad, CA), 2.5% New Zealand sourced horse serum and 1% Penicillin/Streptomycin/L-Glutamine at 37° C., 5% CO2, and 95% humidity. Cells are expanded until reaching 70-95% confluency at which point they are subcultured or harvested for assay use. A serial dilution of test compound was dispensed into multiple 96-well black clear bottom plates in triplicate. A serial dilution of complete growth medium containing cobimetinib was prepared at twice the final concentration and 100 μL was dispensed across the test compound titration in triplicate. Three thousand cells are added per well in 100 μL complete growth medium in each 96-well plate. Plates are incubated for 67-72 hours at 37° C., 5% CO2, and 95% humidity. At the end of the incubation, 40 μL of a 440 μM solution of resazurin (Sigma, St. Louis, MO) in PBS is added to each well of the plate and plates are incubated for an additional 5-7 hours at 37° C., 5% CO2, and 95% humidity. Plates are read on a Synergy2 or equivalent reader (Biotek, Winooski VT) using an excitation of 540 nm and an emission of 600 nm. Drug synergy was assessed via BLISS analysis in the Combenefit software (Cancer Research UK Cambridge Institute, Cambridge, UK). Data is analyzed using Prism software (GraphPad, San Diego, CA) to calculate IC50 values. Shifts in test compound IC50 values are reported from top-constrained combination therapy curves.

A375 cells = test: A375 cell proliferation assay (2), resazurin, 384-well; settings: Homo sapiens, A-375, inhibition of cell proliferation, 67-72 h
Description: A375 Cell Proliferation Assay (2)
A375 cells (catalog (#CRL-1619) are obtained from the American Type Culture Collect (ATTC, Manassas, VA). Briefly, cells were grown in DMEM High Glucose supplemented with 10% characterized fetal bovine serum (Invitrogen, Carlsbad, CA) and 1% Penicillin/Streptomycin/L-Glutamine at 37° C., 5% CO2, and 95% humidity. Cells are expanded until reaching 70-95% confluency at which point they are sub-cultured or harvested for assay use. Using the Beckman Coulter Echo 650, a serial dilution of test compound is dispensed into a 384-well black clear bottom plate in triplicate. Six hundred twenty-five cells are added per well in 50 μL complete growth medium in the 384-well plate. Plates are incubated for 67-72 h at 37° C., 5% CO2, and 95% humidity. At the end of the incubation, 10 μL of a 440 μM solution of resazurin (Sigma, St. Louis, MO) in PBS is added to each well of the plate and plates are incubated for an additional 3-6 h at 37° C., 5% CO2, and 95% humidity. Plates are read on a Synergy2 or equivalent reader (Biotek, Winooski VT) using an excitation of 540 nm and an emission of 600 nm. Data is analyzed using Prism software (GraphPad, San Diego, CA) to calculate IC50 values.

WM3928 cells = test: WM3928 cell proliferation assay (2), resazurin, 384-well; settings: inhibition of cell proliferation, 67-72 hours
Description: WM3928 Cell Proliferation Assay (2)
WM3928 cells (#WM3928-01-0001) are obtained from Rockland Immunochemicals Inc (Gilbertsville, PA). Briefly, cells were grown in MCDB 153 medium (Sigma, #M7403, St. Louis, MO) supplemented with 20% Leibovitz's L-15 (ThermoFisher #11415-064, Waltham, MA), 2% heat inactivated fetal bovine serum (ThermoFisher, #A3840001, Waltham, MA), 5 μg/mL Insulin (Bovine Pancreas) (Sigma, #I0516, St. Louis, MO), 1.68 mM Calcium Chloride (Sigma, #C-34006, St. Louis, MO) and 1% Penicillin/Streptomycin/L-Glutamine (ThermoFisher #10378016, Waltham, MA) at 37° C., 5% CO2, and 95% humidity. Cells are expanded until reaching 70-95% confluency at which point they are sub-cultured or harvested for assay use. Using the Beckman Coulter Echo 650, a serial dilution of test compound is dispensed into a 384-well black clear bottom plate in triplicate. Seven hundred fifty cells are added per well in 50 μL complete growth medium in the 384-well plate. Plates are incubated for 67-72 hours at 37° C., 5% CO2, and 95% humidity. At the end of the incubation, 10 μL of a 440 μM solution of resazurin (Sigma, #199303, St. Louis, MO) in PBS is added to each well of the plate and plates are incubated for an additional 3-6 hours at 37° C., 5% CO2, and 95% humidity. Plates are read on a Synergy2 or equivalent reader (Biotek, Winooski VT) using an excitation of 540 nm and an emission of 600 nm. Data is analyzed using Prism software (GraphPad, San Diego, CA) to calculate IC50 values.

| SMILES | pIC50 (WM3629 cells) | pIC50 (Miapaca-2 cells) | also measured |
| --- | --- | --- | --- |
| Cc1ccc(NC(=O)N2CC[C@H](C(F)(F)F)C2)cc1-c1cccc(-c2cc(NC(=O)C3CC3)ncn2)c1 [Example 200] | ≥ 7.00 | 6.30 to 7.00 |  |
| CC(=O)Nc1cc(-c2cc(-c3cc(NC(=O)NC4CCC(F)(F)CC4)c(F)cc3C)cc(OCCO)n2)ccn1 [Example 63] |  | ≥ 7.00 |  |
| Cc1ccc(NC(=O)N2CC[C@H](C(C)C)C2)cc1-c1cncc(-c2cc(NC(=O)C3CC3)ncn2)c1 [Example 221] | ≥ 7.00 |  |  |
| Cc1cc(F)c(NC(=O)N2CC[C@H](C(F)(F)F)C2)cc1-c1cncc(-c2cc(NC(=O)C3CC3)ncn2)c1 [Example 216] |  |  | pIC50 (A375 cells): 6.30 to 7.00; pIC50 (WM3928 cells): ≥ 7.00 |
| Cc1ccc(NC(=O)N2CC[C@H](C(F)(F)F)C2)cc1-c1cncc(-c2cc(NC(=O)C3CC3)ncn2)c1 [Example 195] |  |  | pIC50 (A375 cells): 6.30 to 7.00; pIC50 (WM3928 cells): ≥ 7.00 |
| Cc1cc(F)c(NC(=O)NCCC2(C)CC2)cc1-c1cc(OCCO)nc(-c2ccnc(NC(=O)C3CC3)c2)c1 [Example 76] |  | 6.30 to 7.00 |  |
| Cc1cc(F)c(NC(=O)NCCC2(C(F)(F)F)CC2)cc1-c1cc(OCCO)nc(C2CCOCC2)c1 [Example 24] |  | ≥ 7.00 |  |
| Cc1ccc(NC(=O)N2CC[C@@H](C(C)C)C2)cc1-c1cncc(-c2cc(NC(=O)C3CC3)ncn2)c1 [Example 217] | ≥ 7.00 |  |  |
| CC(=O)Nc1cc(-c2cc(-c3cc(NC(=O)NCCC4(C)CC4)c(F)cc3C)cc(OCCO)n2)ccn1 [Example 33] |  | ≥ 7.00 |  |
| Cc1ccc(NC(=O)N2CC[C@@H](C(F)(F)F)C2)cc1-c1cccc(-c2cc(NC(=O)C3CC3)ncn2)c1 [Example 201] | ≥ 7.00 | 6.30 to 7.00 |  |
| CC(=O)Nc1cc(-c2cc(-c3cc(NC(=O)NCCC4(C)CC4)c(F)cc3C)cc(C)n2)ccn1 [Example 55] |  | ≥ 7.00 |  |
